Data set [1] relates to mice. In words: CNS test: Narcosis potentiating. The format is in vivo. As to conditions: Mus musculus, po. The text has this: (§1) The activity of the compounds of the Formula I has been tested and compared to that of Glutethimid in various tests. As test compound 1,4;3,6-dianhydro-2,5-diazido-2,5-dideoxy-L-mannitol is used.
(§2) In Table I the LD50 and HD50 values measured on mice are disclosed (HD=hypnotic dose). Table II contains the minimal hypnotic doses measured on various animals (HDmin), while in Table III the results of various CNS tests on mice are summarized.

Data set [2] deals with mice. In words: CNS test: Rotating rod. To be noted: Mus musculus, ip. It counts as in vivo.
Text: as §1, §2

Data set [3] relates to Mouse. In words: Minimal hypnotic dose (HDmin), mouse. The format is in vivo. To be noted: ip.
Text: as §1, §2

A short description of data set [4]: in vivo. As to conditions: mouse, mice.
Text: as §1, §2

Data set [5] relates to Rat. Description: Minimal hypnotic dose (HDmin), rat. As to conditions: ip. It counts as in vivo.
Text: as §1, §2

In data set [6] the test system is Rabbit. Description: Minimal hypnotic dose (HDmin), rabbit. It counts as in vivo. To be noted: Oryctolagus cuniculus, ip.
Text: as §1, §2

The subject of data set [7] is Cat. Description: Minimal hypnotic dose (HDmin), cat. The format is in vivo. To be noted: Felis catus, ip.
Text: as §1, §2

For data set [8], the system named is mice. In words: CNS test: Motility. The format is in vivo. As to conditions: Mus musculus, po.
Text: as §1, §2

Data set [9] deals with mice. Description: HD50 (hypnotic dose) on mice. The format is in vivo. To be noted: Mus musculus, HD = hypnotic dose.
Text: as §1, §2

For data set [10], the system named is mice. Description: CNS test: Tranquillizing effect (fighting test). It counts as in vivo. As to conditions: Mus musculus, po.
Text: as §1, §2

Regarding `CCC1(c2ccccc2)CCC(=O)NC1=O` (stereo not drawn) [Glutethimid, 3-ethyl-3-phenyl-2,6-dioxo-piperidine], the ED100 in [1] turned out to be 30 mg/kg. Further, the ED50 (in general, the dose at which the effect has come halfway, by size or by number of responders) in data set [2] was determined as 70 mg/kg; in data set [8], 135 mg/kg; in data set [9] (ip), 135 mg/kg; in data set [9] (po), 200 mg/kg; in data set [10] it was 40 mg/kg. For the same compound, the minimal effective dose (in general, the smallest amount tested that counted as effective) in data set [3] was determined as 100 mg/kg; in data set [5], 100 mg/kg; in data set [6], 175 mg/kg; in [7], 125 mg/kg. In addition, the LD50 (commonly the dose expected to kill half of the subjects tested) in data set [4] (ip) amounted to 305 mg/kg; in data set [4] (po) it was 580 mg/kg.

Values taken from patent US4332818A, “1,4;3,6-Dianhydro-2,5-diazido-2,5-dideoxy-hexitols” (priority 1980, dated 1982).
